This is an account of results in patent publication US9527832B2, “Substituted condensed pyrimidine compounds” (GRÜNENTHAL GMBH, priority 2013, dated 2016).

The term inhibition denotes the drop in the measured response relative to a control, in per cent. Usually IC50 stands for the midpoint of a concentration-inhibition curve. For orientation: Inhibition means how much of the control response was suppressed. A higher Inhibition goes with a response far below the control.

Bounds are passed on as bounds.

In this test the target is T1, human PDE4B1 (Homo sapiens, UniProt Q07343).
T1 construct: host or cells: Sf9 cells
In words: cAMP HTRF assay to determine the activity of hPDE4B1. The note with it: for IC50: dose response measurements with eight concentrations, reported as ranges, read-out: IC50. The format is biochemical. Put shortly:
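Sf9-expressed recombinant human PDE4B1 (4.8 U) in Tris-HCl/MgCl2/DTT/Tween 20 buffer pH 7.8, with cAMP at 40 nM final, 30 min at room temperature. Reaction stopped with IBMX 1 mM; remaining cAMP detected by HTRF (665/620 nm ratio). IC50 from eight-point dose-response, n=2.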
On the technique in general: TR-FRET usually uses a lanthanide donor and a delayed reading to cut background.

The mark [1] stands for this setting: Percentage inhibition of PDE4B at 1 μM test concentration.

T1 sequence (Q07343 whole entry): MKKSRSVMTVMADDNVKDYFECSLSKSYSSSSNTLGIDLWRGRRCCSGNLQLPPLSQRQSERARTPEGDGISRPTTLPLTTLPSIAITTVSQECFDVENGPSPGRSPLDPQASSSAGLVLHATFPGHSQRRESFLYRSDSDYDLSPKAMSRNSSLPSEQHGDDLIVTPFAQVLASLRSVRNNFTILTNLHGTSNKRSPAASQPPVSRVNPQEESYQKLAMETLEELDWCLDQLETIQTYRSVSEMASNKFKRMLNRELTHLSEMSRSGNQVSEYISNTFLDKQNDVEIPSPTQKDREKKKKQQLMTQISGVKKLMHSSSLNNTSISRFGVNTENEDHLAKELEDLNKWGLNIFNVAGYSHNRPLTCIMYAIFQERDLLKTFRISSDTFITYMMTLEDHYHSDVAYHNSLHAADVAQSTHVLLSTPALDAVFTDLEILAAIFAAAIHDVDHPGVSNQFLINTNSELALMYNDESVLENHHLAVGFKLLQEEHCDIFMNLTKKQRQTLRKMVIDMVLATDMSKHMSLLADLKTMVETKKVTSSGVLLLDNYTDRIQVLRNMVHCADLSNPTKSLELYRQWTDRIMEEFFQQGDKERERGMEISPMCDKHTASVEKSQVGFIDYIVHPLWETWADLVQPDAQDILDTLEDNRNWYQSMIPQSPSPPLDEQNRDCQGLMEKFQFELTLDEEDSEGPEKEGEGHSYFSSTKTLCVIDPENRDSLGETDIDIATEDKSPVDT

For the molecule `CN(C)C(=O)COc1ccc2oc(=O)n(-c3nc(-c4ccc(Cl)s4)nc4c3C[S+]([O-])C4)c2c1` (stereo not shown) [2-76, 2-((3-(2-(5-Chlorothiophen-2-yl)-6-oxido-5,7-dihydrothieno[3,4-d]pyrimidin-4-yl)-2-oxo-2,3-dihydrobenzo[d]oxazol-5-yl)oxy)-N,N-dimethylacetamide], the IC50 fell in the range of 100 to 1000 nM. For the same molecule, under setting [1], the inhibition at 1 µM was found to be 62%.
In the case of `O=C(O)Cc1ccc2c(c1)CCN2c1nc(-c2ccc(Cl)s2)nc2c1CSC2` [Compound No. 1-20, 2-(1-(2-(5-Chlorothiophen-2-yl)-5,7-dihydrothieno[3,4-d]pyrimidin-4-yl)indolin-5-yl)acetic acid], the half-maximal inhibitory concentration (IC50) is below 100 nM. Moreover, under setting [1], the inhibition at 1 µM came to 92%.
Take `CN(C)C(=O)COc1ccc2c(c1)N(c1nc(-c3ccccc3F)nc3c1C[S+]([O-])C3)CC2` (stereo not shown) [2-100, 2-[[1-[2-(2-Fluorophenyl)-6-oxo-5,7-dihydro-thieno[3,4-d]pyrimidin-4-yl]-2,3-dihydro-1H-indol-6-yl]oxy]-N,N-dimethyl-acetamide]: the IC50 was below 100 nM. For the same molecule, the inhibition at 1 µM under setting [1] was found to be 100%.
Regarding `O=C(O)c1ccc2c(c1)oc(=O)n2-c1nc(-c2ccc(Cl)s2)nc2c1CCC2` [Compound No. 1-68, 3-(2-(5-Chlorothiophen-2-yl)-6,7-dihydro-5H-cyclopenta[d]pyrimidin-4-yl)-2-oxo-2,3-dihydrobenzo[d]oxazole-6-carboxylic acid], the inhibition at 1 µM under setting [1] was 34%.
In the case of `CCOc1ccc(-c2nc3c(c(N4CCc5ccc(OCC(=O)N(C)C)cc54)n2)C[S+]([O-])C3)cc1` (stereo not shown) [2-110, 2-[[1-[2-(4-Ethoxyphenyl)-6-oxo-5,7-dihydro-thieno[3,4-d]pyrimidin-4-yl]-2,3-dihydro-1H-indol-6-yl]oxy]-N,N-dimethyl-acetamide], the 50% inhibitory concentration (IC50) is below 100 nM. Further, the inhibition at 1 µM under setting [1] amounted to 119%.
In the case of `COc1ccc(-c2nc3c(c(N4CCc5ccc(OCC(=O)N(C)C)cc54)n2)CS(=N)(=O)C3)cc1F` (stereo not shown) [Compound No. 2-115, 2-((1-(2-(3-Fluoro-4-methoxyphenyl)-6-imino-6-oxido-5,7-dihydrothieno[3,4-d]pyrimidin-4-yl)indolin-6-yl)oxy)-N,N-dimethylacetamide], the IC50 was below 100 nM. For the same molecule, the inhibition at 1 µM under setting [1] was found to be 106%.
With `Cc1ccc(-c2nc3c(c(N4CCc5ccc(OCC(=O)N(C)C)cc54)n2)C[S+]([O-])C3)cc1` (stereo not shown) [2-87, N,N-Dimethyl-2-[[1-(6-oxo-2-p-tolyl-5,7-dihydro-thieno[3,4-d]pyrimidin-4-yl)-2,3-dihydro-1H-indol-6-yl]oxy]-acetamide], the IC50 is below 100 nM. Also, the inhibition at 1 µM under setting [1] was found to be 112%.
Take `CN(C(=O)COc1ccc2c(c1)N(c1nc(-c3ccc(Cl)s3)nc3c1CS(=O)(=O)C3)CC2)C1CC1` [Compound No. 2-56, 2-((1-(2-(5-Chlorothiophen-2-yl)-6,6-dioxido-5,7-dihydrothieno[3,4-d]pyrimidin-4-yl)indolin-6-yl)oxy)-N-cyclopropyl-N-methylacetamide]: the IC50 lay within 100 to 1000 nM. Also, under setting [1], the inhibition at 1 µM was 68%.
`O=C(O)Cc1ccc2c(c1)CCN2c1nc(-c2ccc(F)s2)nc2c1CS(=O)(=O)C2` [Compound No. 1-25, 2-(1-(2-(5-Fluoro-thiophen-2-yl)-6,6-dioxo-5,7-dihydro-thieno[3,4-d]pyrimidin-4-yl)-2,3-dihydro-1H-indol-5-yl)acetic acid]: the IC50 is below 100 nM. For the same molecule, under setting [1], the inhibition at 1 µM was 103%.
`O=C(COc1ccc2c(c1)N(c1nc(-c3ccc(Cl)s3)nc3c1C[S+]([O-])C3)CC2)N1CCOCC1` (stereo not shown) [Compound No. 2-118, 2-((1-(2-(5-Chlorothiophen-2-yl)-6-oxido-5,7-dihydrothieno[3,4-d]pyrimidin-4-yl)indolin-6-yl)oxy)-1-morpholinoethanone]: the inhibition at 1 µM under setting [1] came to 93%.
On to `O=C(O)Cc1ccc2c(c1)CCN2c1nc(-c2ccc(Cl)s2)nc2c1CCCC2` [Compound No. 1-50, 2-(1-(2-(5-Chlorothiophen-2-yl)-5,6,7,8-tetrahydroquinazolin-4-yl)indolin-5-yl)acetic acid], for which the IC50 was in the range of 100 to 1000 nM. For the same molecule, the inhibition at 1 µM under setting [1] turned out to be 76%.
Turning to `CN(C)C(=O)COc1ccc2c(c1)N(c1nc(-c3cccc(C#N)c3)nc3c1C[S+]([O-])C3)CC2` (stereo not shown) [2-98, 2-[[1-[2-(3-Cyano-phenyl)-6-oxo-5,7-dihydro-thieno[3,4-d]pyrimidin-4-yl]-2,3-dihydro-1H-indol-6-yl]oxy]-N,N-dimethyl-acetamide], the concentration for half-maximal inhibition (IC50) is below 100 nM. In addition, the inhibition at 1 µM under setting [1] stood at 98%.
For the molecule `CN(C)C(=O)COc1ccc2c(c1)N(c1nc(-c3cccc(C(N)=O)c3)nc3c1C[S+]([O-])C3)CC2` (stereo not shown) [2-108, 3-[4-[6-[(Dimethyl-carbamoyl)-methoxy]-2,3-dihydro-1H-indol-1-yl]-6-oxo-5,7-dihydro-thieno[3,4-d]pyrimidin-2-yl]-benzamide], the inhibition at 1 µM under setting [1] was 62%.
Take `COc1ccc(-c2nc3c(c(-n4ncc5cc(CC(=O)O)ccc54)n2)CCC3)cc1F` [Compound No. 1-60, 2-(1-(2-(3-Fluoro-4-methoxyphenyl)-6,7-dihydro-5H-cyclopenta[d]-pyrimidin-4-yl)-1H-indazol-5-yl)acetic acid]: the 50% inhibitory concentration (IC50) is 100 to 1000 nM. The inhibition at 1 µM under setting [1] was determined as 67%.
For the molecule `CC(=O)Nc1ccc(-c2nc3c(c(N4CCc5ccc(OCC(=O)N(C)C)cc54)n2)C[S+]([O-])C3)cc1` (stereo not shown) [2-109, 2-[[1-[2-(4-Acetylamino-phenyl)-6-oxo-5,7-dihydro-thieno[3,4-d]pyrimidin-4-yl]-2,3-dihydro-1H-indol-6-yl]oxy]-N,N-dimethyl-acetamide], the IC50 was below 100 nM. Besides, under setting [1], the inhibition at 1 µM was determined as 98%.
For `COC(=O)Cc1ccc2c(c1)CCN2c1nc(-c2ccc(Cl)s2)nc2c1CS(=O)(=O)C2` [Compound No. 1-78, Methyl 2-(1-(2-(5-chlorothiophen-2-yl)-6,6-dioxido-5,7-dihydrothieno[3,4-d]pyrimidin-4-yl)indolin-5-yl)acetate], the inhibition at 1 µM under setting [1] was 25%.
Take `CN(C)C(=O)COc1ccc2c(c1)N(c1nc(-c3ccc(F)cc3)nc3c1C[S+]([O-])C3)CC2` (stereo not shown) [2-99, 2-[[1-[2-(4-Fluorophenyl)-6-oxo-5,7-dihydro-thieno[3,4-d]pyrimidin-4-yl]-2,3-dihydro-1H-indol-6-yl]oxy]-N,N-dimethyl-acetamide]: the half-maximal inhibitory concentration (IC50) is below 100 nM. Under setting [1], the inhibition at 1 µM turned out to be 104%.
As to `O=C(COc1ccc2c(c1)N(c1nc(-c3ccc(Cl)s3)nc3c1C[S+]([O-])C3)CC2)N1CCCC1` (stereo not shown) [Compound No. 2-116, 2-((1-(2-(5-Chlorothiophen-2-yl)-6-oxido-5,7-dihydrothieno[3,4-d]pyrimidin-4-yl)indolin-6-yl)oxy)-1-(pyrrolidin-1-yl)ethanone], the inhibition at 1 µM under setting [1] came to 121%.
In the case of `O=C(COc1ccc2c(c1)N(c1nc(-c3ccncc3)nc3c1C[S+]([O-])C3)CC2)N1CCCC1` (stereo not shown) [Compound No. 2-133, 2-((1-(6-Oxido-2-(pyridin-4-yl)-5,7-dihydrothieno[3,4-d]pyrimidin-4-yl)indolin-6-yl)oxy)-1-(pyrrolidin-1-yl)ethanone], the half-inhibitory concentration (IC50) is below 100 nM. Besides, the inhibition at 1 µM under setting [1] is 94%.
For `COC(=O)COc1ccc2c(c1)N(c1nc(-c3ccc(Cl)s3)nc3c1CS(=O)(=O)C3)CC2` [Compound No. 1-77, Methyl 2-((1-(2-(5-chlorothiophen-2-yl)-6,6-dioxido-5,7-dihydrothieno[3,4-d]pyrimidin-4-yl)indolin-6-yl)oxy)acetate] the same measures were 100 to 1000 nM and 62%.
For `O=C(O)Cc1ccc2c(c1)CCN2c1nc(-c2ccc(Cl)s2)nc2c1C[S+]([O-])C2` (stereo not shown) [Compound No. 1-21, 2-(1-(2-(5-Chlor-thiophen-2-yl)-6-oxo-5,7-dihydro-thieno[3,4-d]pyrimidin-4-yl)-2,3-dihydro-1H-indol-5-yl)acetic acid], the “Inhibition at 1 μM test concentration [%]” value under setting [1] is listed as 88%.
For `CN(C)C(=O)COc1ccc2c(c1)N(c1nc(-c3ccoc3)nc3c1C[S+]([O-])C3)CC2` (stereo not shown) [2-102, 2-[[1-[2-(Furan-3-yl)-6-oxo-5,7-dihydro-thieno[3,4-d]pyrimidin-4-yl]-2,3-dihydro-1H-indol-6-yl]oxy]-N,N-dimethyl-acetamide], the half-maximal inhibitory concentration (IC50) was below 100 nM. Under setting [1], the inhibition at 1 µM was 110%.
For the molecule `NC(=O)c1ccc(-c2nc3c(c(N4CCc5cc(CC(=O)O)ccc54)n2)CCC3)s1` [Compound No. 1-75, 2-(1-(2-(5-Carbamoylthiophen-2-yl)-6,7-dihydro-5H-cyclopenta[d]pyrimidin-4-yl)indolin-5-yl)acetic acid], the half-maximal inhibitory concentration (IC50) was below 100 nM. Under setting [1], the inhibition at 1 µM worked out at 101%.
As for `COc1ccc(-c2nc3c(c(N4CCc5ccc(OCC(=O)N(C)C)cc54)n2)CS(=O)(=O)C3)cc1F` [Compound No. 2-37, 2-((1-(2-(3-Fluoro-4-methoxyphenyl)-6,6-dioxido-5,7-dihydrothieno[3,4-d]pyrimidin-4-yl)indolin-6-yl)oxy)-N,N-dimethylacetamide], the IC50 is below 100 nM. The inhibition at 1 µM under setting [1] is 96%.
In the case of `O=C(O)Cc1ccc2c(c1)CCN2c1nc(-c2ccc3occc3c2)nc2c1C[S+]([O-])C2` (stereo not shown) [Compound No. 1-81, 2-(1-(2-(Benzofuran-5-yl)-6-oxido-5,7-dihydrothieno[3,4-d]pyrimidin-4-yl)indolin-5-yl)acetic acid], the 50% inhibitory concentration (IC50) is below 100 nM. In addition, under setting [1], the inhibition at 1 µM was determined as 106%.
Consider `O=C(O)c1ccc2c(c1)CC(=O)N2c1nc(-c2ccc(Cl)s2)nc2c1CCC2` [Compound No. 1-69, 1-(2-(5-Chlorothiophen-2-yl)-6,7-dihydro-5H-cyclopenta[d]pyrimidin-4-yl)-2-oxoindoline-5-carboxylic acid], for which the 50% inhibitory concentration (IC50) is 100 to 1000 nM. The inhibition at 1 µM under setting [1] came out at 61%.
